Experimental findings from patent US20240199623A1 (ILDONG PHARMACEUTICAL CO., LTD., priority 2020, published 2024) are described below.

As a reminder, the solubility is the dissolved amount per volume that the medium holds.

pEC50: −log10 of the molar value. ≈ marks a conversion by molar mass, not a printed value.

One data set concerns C57BL/6 female mice. The experiment in a line: Scopolamine induced tear volume reduction model. Format: in vivo, mouse. The settings on record: scopolamine-injected mice, ophthalmic solution topically on both eyes 3 times a day, phenol red thread; average if evaluated twice. How it is done:
Seven-week old C57BL/6 female mice were used.
Scopolamine hydrobromide was purchased from Sigma Aldrich (Cat No. S0929), dissolved in saline, and sterilized prior to use.
Zone-Quick phenol red thread was obtained from Menicon.
The test compounds used in this experiment were dissolved in PBS containing 1% of surfactant.
Scopolamine (0.2 ml of 2.5 mg/mL solution) was injected subcutaneously 3 times a day to induce a decrease in the tear volume in the mouse. At the same time, the ophthalmic solution of test compounds or vehicle were topically administered onto both eyes 3 times a day. Tear volume was measured by phenol red thread before dosing (basal level) and 1 hour after the last administration of scopolamine and ophthalmic solution. The results were obtained by measuring the length of the phenol red thread turning red by tears. The schedule of study is expressed as FIG. 1.
If the test compound was evaluated twice, the average value was used.

Data set [1] deals with T1, human wild type-CFTR (Homo sapiens, UniProt P13569). Description: Cell-based YFP assay. The arrangement: expressed in transfected cells; host or cells: CHO-K1 (Chinese hamster ovary). Conditions: CHO-K1 cells expressing human wild type-CFTR and YFP-H148Q/I152L; forskolin 20 μM = 100% activity; read-out: Cell-based YFP Assay (EC50) Concentration Range. The essentials:
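CHO-K1 cells co-expressing human wild-type CFTR and YFP-H148Q/I152L halide sensor, grown 48 h at 37 °C, then in PBS. YFP quenching by I⁻ influx read at 37 °C after adding 140 mM I⁻ solution, sampled every 0.4 s for 14 s. Triplicates averaged; EC50 fitted.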

The target of data set [2] is T1, human wild type-CFTR. Description: Short-circuit current measurement. Format: cell-based. The arrangement: expressed in transfected cells. Conditions: FRT cells expressing human wild type-CFTR; Forskolin 20 μM signal used as 100% activity; read-out: Short-circuit current measurement (EC50) Concentration range. An excerpt: Forskolin (Tocris cat. #1099), CFTRinh-172 (Tocris cat. #3430), amphotericin B (Tocris cat. #6930), dimethyl sulfoxide (Sigma cat. #D4540), EVC4000 Multi-Channel V/I Clamp (World Precision Instruments, Sarasota, FL), PowerLab 4/35 (AD Instruments, Castle Hill, Australia), Labchart Pro 7, GraphPad Prism 5 (GraphPad Software, Inc.). Fisher rat thyroid (FRT) cells expressing human wild type-CFTR were provided by Dr. Alan Verkman (University of California, San Francisco) and grown in DMEM/F12 medium (1:1) supplemented with 10% FBS, 2 mM glutamine, 100 units/ml penicillin and 100 μg/ml streptomycin. Snapwell inserts containing CF TR-expressing FRT cells were mounted in Ussing chambers (Physiologic Instruments, San Diego, CA). […] Forskolin, test compounds, and CFTRinh-172 were added to the apical and basolateral bath solution. Apical membrane current and short-circuit current were measured with an EVC4000 Multi-Channel V/I Clamp (World Precision Instruments, Sarasota, FL) and recorded using PowerLab 4/35 (AD Instruments, Castle Hill, Australia). Data were collected and analyzed with ADInstruments acquisition software Labchart Pro 7 software. The sampling rate was 4 Hz.

A short description of data set [3]: Phosphate-buffered saline (PBS) solubility of compounds. Format: physicochemical. The settings on record: aqueous buffer, thermodynamic from solid, PBS pH 7.5, 0.5 mg/mL, vortexed 90 min, filtered, LC-MS/MS, read-out: Solubility Range. How it is done:
PBS solutions (pH 7.5) were prepared according to the following compositions and stored at 4° C. Test compounds were dissolved in PBS (pH 7.5) at 0.5 mg/mL and vortexed for 90 min. The PBS solution was sequentially filtered through a 0.45, 1.2, […] syringe filter. Concentration of test compounds were determined using LC-MS/MS with appropriate dilution of the samples.

T1 sequence (P13569 whole entry): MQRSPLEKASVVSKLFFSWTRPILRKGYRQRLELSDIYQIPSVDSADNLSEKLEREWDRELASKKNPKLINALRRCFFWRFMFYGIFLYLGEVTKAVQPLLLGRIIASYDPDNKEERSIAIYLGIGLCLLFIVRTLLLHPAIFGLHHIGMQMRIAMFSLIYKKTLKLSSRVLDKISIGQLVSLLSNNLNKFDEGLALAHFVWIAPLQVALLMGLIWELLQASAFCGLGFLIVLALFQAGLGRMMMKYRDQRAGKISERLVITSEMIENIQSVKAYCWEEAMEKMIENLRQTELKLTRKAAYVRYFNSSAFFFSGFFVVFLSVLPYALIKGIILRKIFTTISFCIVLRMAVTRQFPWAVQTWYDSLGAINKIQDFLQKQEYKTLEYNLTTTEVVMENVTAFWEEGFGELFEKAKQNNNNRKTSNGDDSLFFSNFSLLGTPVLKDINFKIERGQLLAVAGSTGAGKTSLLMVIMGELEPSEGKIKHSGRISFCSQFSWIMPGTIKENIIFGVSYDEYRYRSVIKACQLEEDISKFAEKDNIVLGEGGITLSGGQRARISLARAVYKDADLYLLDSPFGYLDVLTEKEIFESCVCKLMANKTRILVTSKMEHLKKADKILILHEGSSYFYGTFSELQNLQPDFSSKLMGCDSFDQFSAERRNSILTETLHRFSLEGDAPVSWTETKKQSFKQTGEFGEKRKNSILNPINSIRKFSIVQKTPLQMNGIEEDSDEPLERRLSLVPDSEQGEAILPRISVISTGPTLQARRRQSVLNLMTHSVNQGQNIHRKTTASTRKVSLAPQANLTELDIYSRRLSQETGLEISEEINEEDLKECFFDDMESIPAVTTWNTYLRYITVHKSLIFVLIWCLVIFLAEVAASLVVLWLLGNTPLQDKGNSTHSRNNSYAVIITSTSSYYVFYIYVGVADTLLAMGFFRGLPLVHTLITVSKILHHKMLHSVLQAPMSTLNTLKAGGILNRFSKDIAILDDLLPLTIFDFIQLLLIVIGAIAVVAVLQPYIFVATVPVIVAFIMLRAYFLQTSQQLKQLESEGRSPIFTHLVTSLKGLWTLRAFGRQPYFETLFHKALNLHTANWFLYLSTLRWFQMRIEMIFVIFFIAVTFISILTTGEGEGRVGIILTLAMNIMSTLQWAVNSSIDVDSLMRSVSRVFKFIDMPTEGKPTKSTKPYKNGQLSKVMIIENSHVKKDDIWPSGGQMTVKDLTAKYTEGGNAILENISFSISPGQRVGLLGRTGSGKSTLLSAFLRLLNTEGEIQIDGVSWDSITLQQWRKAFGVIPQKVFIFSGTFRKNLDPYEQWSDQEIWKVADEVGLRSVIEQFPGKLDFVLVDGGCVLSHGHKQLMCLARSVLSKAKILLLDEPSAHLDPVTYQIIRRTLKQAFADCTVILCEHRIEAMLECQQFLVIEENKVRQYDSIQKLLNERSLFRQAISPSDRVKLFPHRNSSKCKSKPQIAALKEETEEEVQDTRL

On to `COc1ccc(-c2ccnc3cc(C(=O)NC45CCC(C(=O)N6CCOCC6)(CC4)CC5)nn23)cc1OC` [Compound 186, 7-(3,4-dimethoxyphenyl)-N-(4-(morpholine-4-carbonyl)bicyclo[2.2.2]octan-1-yl)pyrazolo[1,5-a] pyrimidine-2-carboxamide], for which the “Ratio of tear volume (test compound to vehicle)” value (“Ratio of tear volume” for short) in the data set on C57BL/6 female mice is reported as 1.05. The values for the pEC50 on human wild type-CFTR [1] and on human wild type-CFTR [2] were above 6.70 and 5.70 to 6.70, respectively. For the same molecule, the solubility at 90 min in data set [3] was above 10 µg/mL.
Take `COc1ccc(-c2ccnc3cc(C(=O)N4CCN(Cc5c(F)cccc5F)CC4)nn23)cc1OC` [Compound 212, (4-(2,6-difluorobenzyl)piperazin-1-yl)(7-(3,4-dimethoxyphenyl)pyrazolo [1,5-a]pyrimidin-2-yl)methanone]: the “Ratio of tear volume” value in the data set with C57BL/6 female mice was 1.43. Also, the pEC50 on human wild type-CFTR [1] was above 6.70; at human wild type-CFTR [2], at most 5.70. Besides, the solubility at 90 min in data set [3] lay in the range of 0.1 to 10 µg/mL (≈ 0.203 to 20.3 µM).
In the case of `COc1ccc(-c2ccnc3cc(C(=O)N4CCN(C(=O)c5c(F)c(F)c(F)c(F)c5F)[C@@H](C)C4)nn23)cc1OC` [Compound 259, (S)-(7-(3,4-dimethoxyphenyl)pyrazolo[1,5-a]pyrimidin-2-yl) (3-methyl-4-(perfluorobenzoyl)piperazin-1-yl)methanone], the “Ratio of tear volume” value with C57BL/6 female mice stood at 0.94. Besides, the pEC50 on human wild type-CFTR [1] and on human wild type-CFTR [2] was 5.70 to 6.70 each time. Moreover, in data set [3], the solubility at 90 min is 0.1 to 10 µg/mL (≈ 0.174 to 17.4 µM).
For the molecule `COc1ccc(-c2ccnc3cc(C(=O)Nc4ccc(N5CCN(C(=O)OC(C)(C)C)CC5)cc4)nn23)cc1OC` [Compound 271, tert-butyl 4-(4-(7-(3,4-dimethoxyphenyl)pyrazolo [1,5-a]pyrimidine-2-carboxamido)phenyl) piperazine-1-carboxylate], the “Ratio of tear volume” value in the data set with C57BL/6 female mice was determined as 1.17. Moreover, the pEC50 at human wild type-CFTR [1] and on human wild type-CFTR [2] was above 6.70 in each case. The solubility at 90 min in data set [3] is below 0.1 µg/mL.
As to `COc1ccc(-c2ccnc3cc(C(=O)Nc4ccc(N5CCC6(CC5)OCCO6)cc4)nn23)cc1OC` [Compound 274, N-(4-(1,4-dioxa-8-azaspiro[4.5]decan-8-yl)phenyl)-7-(3,4-dimethoxyphenyl)pyrazolo [1,5-a]pyrimidine-2-carboxamide], the “Ratio of tear volume” value in the data set on C57BL/6 female mice amounted to 1.07. In addition, the pEC50 at human wild type-CFTR [1] and at human wild type-CFTR [2] was above 6.70 each time. Also, the solubility at 90 min in data set [3] was below 0.1 µg/mL.
For the molecule `COc1ccc(-c2ccnc3cc(C(=O)Nc4ccc(NC(=O)CNC(=O)OC(C)(C)C)cc4)nn23)cc1OC` [Compound 280, tert-butyl (2-((4-(7-(3,4-dimethoxyphenyl)pyrazolo [1,5-a]pyrimidine-2-carboxamido)phenyl)amino)-2-oxoethyl)carbamate], the “Ratio of tear volume” value in the data set on C57BL/6 female mice amounted to 1.32. Also, the pEC50 on human wild type-CFTR [1] and at human wild type-CFTR [2] was above 6.70 in each case. Also, in data set [3], the solubility at 90 min was below 0.1 µg/mL.
